We go through 27 compounds from patent US20090048258A1, “Amide Compound” (priority 2005, published 2009).

Usually IC50 stands for the concentration that inhibits the measured activity by half.

Where only a bound is given, the exact number is not on record here.

This assay deals with T1, Human DGAT1 (Homo sapiens, UniProt O75907).
T1 construct: my translation of the primer: M-G-DYKDDDD-GDRGSSRRR) (N); made in house; host or cells: Sf9 insect cells (recombinant baculovirus BAC-DGAT1, pFASTBAC1); microsome fraction
T1 sequence (O75907 1-488): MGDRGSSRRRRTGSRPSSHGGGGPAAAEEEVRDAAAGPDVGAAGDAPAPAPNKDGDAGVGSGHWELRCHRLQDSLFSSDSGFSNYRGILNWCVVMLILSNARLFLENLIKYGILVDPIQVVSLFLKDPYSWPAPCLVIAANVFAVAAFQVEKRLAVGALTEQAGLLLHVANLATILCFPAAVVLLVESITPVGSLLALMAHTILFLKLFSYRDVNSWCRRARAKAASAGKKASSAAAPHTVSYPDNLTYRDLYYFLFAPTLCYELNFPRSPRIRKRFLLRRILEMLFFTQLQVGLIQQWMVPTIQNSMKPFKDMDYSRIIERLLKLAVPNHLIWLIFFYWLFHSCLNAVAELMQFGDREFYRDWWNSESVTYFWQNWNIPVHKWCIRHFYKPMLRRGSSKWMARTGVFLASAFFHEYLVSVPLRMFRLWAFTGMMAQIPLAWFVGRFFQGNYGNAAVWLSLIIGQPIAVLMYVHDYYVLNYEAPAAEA
The experiment in a line: DGAT inhibitory activity: [14C]-triglyceride synthesis by DGAT1 high expression Sf9 microsome. Type of assay: biochemical. As to conditions: Table 1, 25 μM dioleoylglycerol, 25 μM [14C]-Oleoyl-CoA, 32° C., 15 min, read-out: DGAT inhibitory activity (according to IC50). Here is the method: The primer base sequence is shown below.
The PCR reaction was conducted using a KOD-plus kit (TOYOBO). The obtained PCR product was electrophoresed on agarose gel (1%), the DNA fragment amplified by PCR was recovered from the gel, and then digested with restriction enzymes EcoRI and SpeI. […] Furthermore, using BAC-TO-BAC Baculovirus Expression System (Invitrogen), recombinant baculovirus BAC-DGAT1 was prepared.
SF9 cells were sown at 1×10^6 cells/ml on Sf-900II SEM medium (1 L, Invitrogen) containing 10% fetal calf serum (Trace), 50 mg/L gentamicin (Invitrogen) and 0.1% Pluronic F-68 (Invitrogen), and shaking culture was performed using a 2 L volume Erlenmeyer at 27° C., 100 rpm. After culturing for 24 hr, recombinant baculovirus BAC-DGAT1 (6.7 mL) was added, and the mixture was further cultured for 3 days. The culture medium was centrifuged at 2,000 rpm for 5 min to give virus-infected cells. The infected cells were washed with a phosphate buffered saline (Invitrogen), centrifuged under the same conditions, and the cells were preserved at −80° C. The cryopreserved cells were thawed in ice, suspended in buffer A (50 mM Tris buffer (30 mL, pH 7.4) containing 20% glycerol, 0.15 M NaCl) supplemented with Complete Protease Inhibitor (Boehringer), and ruptured 3 times with a Polytron homogenizer (Kinematica) at 20,000 rpm for 30 sec. The Sf9 microsome fractions were obtained by a conventional method and cryopreserved at −80° C. as a DGAT1 high expression Sf9 microsome.
As a DGAT1 reaction buffer, a solution having a composition of 100 mM Tris-HCl (pH 7.5), 250 mM sucrose, 150 mM MgCl2, 0.01% bovine serum albumin (BSA) was used. […] A mixture of 300 μL of chloroform:methanol (=1:2) was added to the reaction mixture to quench the reaction. The reaction mixture was sufficiently mixed and saline (200 μL) was added to partition the mixture between a chloroform layer (lower layer) and an aqueous layer (upper layer). The chloroform layer (50 μL) was spotted on a thin layer chromatography silica gel plate (TLC plate, Merck) and developed with a solvent (n-hexane:diethyl ether:ethyl acetate:acetic acid=74:15:15:1). The developed TLC plate was dried, contacted with a BAS imaging plate (manufactured by FUJIFILM) and measured with BAS2500 (manufactured by FUJIFILM) 16 hr later to numerically show the amount of [^14C]-triglyceride (TG amount) produced during the reaction. The inhibitory rate was calculated by the following formula:
Inhibitory rate (%)=(1−(TG amount in the case with addition of test compound−blank TG amount)/(control TG amount−blank TG amount))×100
The count of the triglyceride produced in the solution reacted without addition of the test compound was used as a “control TG amount”, and the count of the triglyceride produced in the solution reacted without addition of the test compound and DGAT1 high expression Sf9 microsome was used as a “blank TG amount”.
As for `COc1cc2c(cc1OC)C(=O)[C@H](CC(=O)Nc1nc(-c3ccccc3)c(Cc3ccccc3)s1)C2` (stereo in doubt) [Example 6, N-(5-benzyl-4-phenyl-1,3-thiazol-2-yl)-2-(5,6-dimethoxy-1-oxo-2,3-dihydro-1H-inden-2-yl)acetamide], the IC50 is 10 to 50 nM.
The result for `CCOc1ccc(C(=O)CCC(=O)Nc2nc(-c3ccccc3)c(Cc3ccccc3)s2)cc1` [Example 1, N-(5-benzyl-4-phenyl-1,3-thiazol-2-yl)-4-(4-ethoxyphenyl)-4-oxobutanamide] reads not above 10 nM; that for `O=C(CCC(=O)c1ccccc1)Nc1nc(-c2ccccc2)c(Cc2ccccc2)s1` [Example 2, N-(5-benzyl-4-phenyl-1,3-thiazol-2-yl)-4-oxo-4-phenylbutanamide], 50 to 500 nM.
The result for `CCOc1ccc(C(=O)CCC(=O)Nc2nc(-c3ccccc3)c(Cc3ccccc3)s2)cc1OCC` [Example 3, N-(5-benzyl-4-phenyl-1,3-thiazol-2-yl)-4-(3,4-diethoxyphenyl)-4-oxobutanamide] reads not above 10 nM; that for `CCOc1cccc(C(=O)CCC(=O)Nc2nc(-c3ccccc3)c(Cc3ccccc3)s2)c1` [Example 5, N-(5-benzyl-4-phenyl-1,3-thiazol-2-yl)-4-(3-ethoxyphenyl)-4-oxobutanamide], not above 10 nM; that for `O=C(CCC(=O)c1ccc2c(c1)CCCC2)Nc1nc(-c2ccccc2)c(Cc2ccccc2)s1` [Example 7, N-(5-benzyl-4-phenyl-1,3-thiazol-2-yl)-4-oxo-4-(5,6,7,8-tetrahydronaphthalen-2-yl)butanamide], not above 10 nM.
The result for `CCOc1ccc(C(=O)CCC(=O)Nc2cc(-c3ccccc3)cc(-c3ccccc3)c2)cc1OCC` [Example 8, 4-(3,4-diethoxyphenyl)-4-oxo-N-(1,1′:3′,1″-terphenyl-5′-yl)butanamide] reads 50 to 500 nM; that for `CCOC(=O)CCc1ccc(NC(=O)CCC(=O)c2ccc(OCC)c(OCC)c2)cc1-c1ccccc1` [Example 9, ethyl 3-(5-{[4-(3,4-diethoxyphenyl)-4-oxobutanoyl]amino}biphenyl-2-yl)propanoate], 50 to 500 nM; that for `CCOc1ccc(C(=O)CCC(=O)Nc2ccc(CCC(=O)O)c(-c3ccccc3)c2)cc1OCC` [Example 10, 3-(5-{[4-(3,4-diethoxyphenyl)-4-oxobutanoyl]amino}biphenyl-2-yl)propanoic acid], 500 to 10000 nM.
On to `CCOc1ccc(C(=O)CCC(=O)Nc2cc(-c3ccccc3)cc(-c3ccccc3)n2)cc1OCC` [Example 11, 4-(3,4-diethoxyphenyl)-N-(4,6-diphenylpyridin-2-yl)-4-oxobutanamide], for which the IC50 lay within 10 to 50 nM.
The result for `CCOc1ccc(C(=O)CCC(=O)Nc2cc(-c3ccccc3)nc(-c3ccccc3)c2)cc1OCC` [Example 12, 4-(3,4-diethoxyphenyl)-N-(2,6-diphenylpyridin-4-yl)-4-oxobutanamide] reads 500 to 10000 nM; that for `CCOc1ccc(C(=O)CCC(=O)Nc2ncc(-c3ccccc3)cc2-c2ccccc2)cc1OCC` [Example 13, 4-(3,4-diethoxyphenyl)-N-(3,5-diphenylpyridin-2-yl)-4-oxobutanamide], 50 to 500 nM.
The figure for `CCOc1ccc(C(=O)CCC(=O)Nc2cc(-c3ccccc3)nc(-c3ccccc3)n2)cc1OCC` [Example 14, 4-(3,4-diethoxyphenyl)-N-(2,6-diphenylpyrimidin-4-yl)-4-oxobutanamide] is 50 to 500 nM; for `CCOc1ccc(C(=O)CCC(=O)Nc2cc(-c3ccc(OCOC)cc3)c3ccccc3n2)cc1OCC` [Example 15, 4-(3,4-diethoxyphenyl)-N-{4-[4-(methoxymethoxy)phenyl]quinolin-2-yl}-4-oxobutanamide] it is 50 to 500 nM; for `CCOc1ccc(C(=O)CCC(=O)Nc2cc(-c3ccccc3)c(Cc3ccccc3)s2)cc1OCC` [Example 17, N-(5-benzyl-4-phenyl-2-thienyl)-4-(3,4-diethoxyphenyl)-4-oxobutanamide] it is 10 to 50 nM.
The result for `CCOc1ccc(C(=O)CCC(=O)Nc2cc(-c3ccccc3)sc2-c2ccccc2)cc1OCC` [Example 18, 4-(3,4-diethoxyphenyl)-N-(2,5-diphenyl-3-thienyl)-4-oxobutanamide] reads 50 to 500 nM; that for `CCOc1ccc(C(=O)CCC(=O)Nc2ccn(Cc3ccccc3)c2-c2ccccc2)cc1OCC` [Example 19, N-(1-benzyl-2-phenyl-1H-pyrrol-3-yl)-4-(3,4-diethoxyphenyl)-4-oxobutanamide], 10 to 50 nM; that for `CCOc1ccc(C(=O)CCC(=O)Nc2cn(Cc3ccccc3)nc2-c2ccccc2)cc1OCC` [Example 20, N-(1-benzyl-3-phenyl-1H-pyrazol-4-yl)-4-(3,4-diethoxyphenyl)-4-oxobutanamide], 50 to 500 nM.
On to `CCOc1ccc(C(=O)CCC(=O)Nc2cnn(Cc3ccccc3)c2-c2ccccc2)cc1OCC` [Example 21, N-(1-benzyl-5-phenyl-1H-pyrazol-4-yl)-4-(3,4-diethoxyphenyl)-4-oxobutanamide], for which the IC50 was 500 to 10000 nM.
As for `CCOc1ccc(C(=O)CCC(=O)Nc2cc(-c3ccc(O)cc3)c3ccccc3n2)cc1OCC` [Example 22, 4-(3,4-diethoxyphenyl)-N-[4-(4-hydroxyphenyl)quinolin-2-yl]-4-oxobutanamide], the IC50 is not above 10 nM.
The result for `CCOc1ccc(C(=O)CCC(=O)Nc2cc(-c3ccc(OCC(=O)O)cc3)c3ccccc3n2)cc1OCC` [Example 23, [4-(2-{[4-(3,4-diethoxyphenyl)-4-oxobutanoyl]amino}quinolin-4-yl)phenoxy]acetic acid] reads 500 to 10000 nM.
The figure for `CCCc1cc(C(=O)CCC(=O)Nc2nc(-c3ccccc3)c(Cc3ccccc3)s2)ccc1OCC` [Example 24, N-(5-benzyl-4-phenyl-1,3-thiazol-2-yl)-4-(4-ethoxy-3-propylphenyl)-4-oxobutanamide] is 10 to 50 nM.
The result for `CCOc1ccc(C(=O)CCC(=O)Nc2nc(-c3ccccc3)c(Cc3ccccc3)s2)cc1Br` [Example 25, N-(5-benzyl-4-phenyl-1,3-thiazol-2-yl)-4-(3-bromo-4-ethoxyphenyl)-4-oxobutanamide] reads not above 10 nM.
As to `CCCc1ccc(C(=O)CCC(=O)Nc2nc(-c3ccccc3)c(Cc3ccccc3)s2)cc1` [Example 26, N-(5-benzyl-4-phenyl-1,3-thiazol-2-yl)-4-oxo-4-(4-propylphenyl)butanamide], the IC50 lay within 50 to 500 nM.
Consider `O=C(CCC(=O)c1ccc2c(c1)CCO2)Nc1nc(-c2ccccc2)c(Cc2ccccc2)s1` [Example 27, N-(5-benzyl-4-phenyl-1,3-thiazol-2-yl)-4-(2,3-dihydro-1-benzofuran-5-yl)-4-oxobutanamide], for which the concentration for half-maximal inhibition (IC50) is not above 10 nM.
The result for `O=C(CCC(=O)c1ccc(OC(F)(F)F)cc1)Nc1nc(-c2ccccc2)c(Cc2ccccc2)s1` [Example 28, N-(5-benzyl-4-phenyl-1,3-thiazol-2-yl)-4-oxo-4-[4-(trifluoromethoxy)phenyl]butanamide] reads 50 to 500 nM; that for `COc1cc2c(cc1C(=O)CCC(=O)Nc1nc(-c3ccccc3)c(Cc3ccccc3)s1)CCCC2` [Example 29, N-(5-benzyl-4-phenyl-1,3-thiazol-2-yl)-4-(3-methoxy-5,6,7,8-tetrahydronaphthalen-2-yl)-4-oxobutanamide], 10 to 50 nM.
